Experimental data as given in US20200165257A1, “INHIBITORS OF PHOSPHOINOSITIDE 3-KINASE AND HISTONE DEACETYLASE FOR TREATMENT OF CANCER” (THE UNITED STATES OF AMERICA, AS REPRESENTED BY THE …, priority 2017, published 2020).
pIC50: −log10 of the molar value.

Legend:
[1] = target: PI3Kδ (Homo sapiens, UniProt O00329); test: PI3Kδ kinase assay (HTRF); type: biochemical; conditions: symbols ++ / +; read-out: PI3Kδ Inhibition Activity (IC50 class)
Protocol: The PIP3 product is detected by displacement of biotin-PIP3 from an energy transfer complex consisting of Europium labeled anti-GST monoclonal antibody, a GST-tagged pleckstrin homology (PH) domain, biotinylated PIP3 and Streptavidin-Allophycocyanin (APC). […] The PIP3 product formed by PI 3-Kinase(h) activity displaces biotin-PIP3 from the complex resulting in a loss of energy transfer, and thus, a decrease in signal.
First, the kinase reaction with PIP2 substrate is carried out in the presence of ATP, and the reaction is quenched with stop Solution, and then, finally detect by adding Detection Mixture followed by incubation.
HEPES 50 mM (pH7.0), NaN3 0.02%, BSA 0.01%, Orthovanadate 0.1 mM, 1% DMSO.
Detection buffer: HEPES 10 mM (pH7.0), BSA 0.02%, KF 0.16 M, EDTA 4 mM.
10 μM PIP2 substrate (PI(4,5)P2)
10 μM ATP under standard conditions
1. Prepare substrate in freshly prepared Reaction Buffer.
2. Deliver kinase into the substrate solution and gently mix.
3. Deliver compounds in 100% DMSO into the kinase reaction mixture by Acoustic technology (Echo550; nanoliter range), incubate for 10 min at room temperature.
4. Deliver ATP into the reaction mixture to initiate the reaction.
5. Incubate for 30 min at 30° C.
6. Quench the reaction with Stop Solution.
7. Add Detection Mixture, and incubate for overnight.
The emission ratio is converted into μM PIP3 production based on PIP3 standard curves.
The nonlinear regression to obtain the standard curve and IC50 values are performed using Graphpad Prism software.

[2] = test system: Melanoma Cell Line UACC-62; test: cells; type: cell-based; conditions: Homo sapiens; UACC-62; single dose, 10 uM compound concentration; read-out: inhibition of proliferation
[3] = test system: Ovarian Cell Line NCI/ADR-RES; test: cells; type: cell-based; conditions: Homo sapiens, single dose, 10 uM compound concentration, read-out: inhibition of proliferation
[4] = test system: Breast Cancer Cell Line HS 578T; type: cell-based; conditions: Homo sapiens; HS 578T; single dose, 10 uM compound concentration; read-out: inhibition of proliferation
[5] = test system: Ovarian Cell Line OVCAR-3; test: cells; conditions: Homo sapiens, OVCAR-3, read-out: inhibition of proliferation

Chain of PI3Kδ (O00329 whole entry): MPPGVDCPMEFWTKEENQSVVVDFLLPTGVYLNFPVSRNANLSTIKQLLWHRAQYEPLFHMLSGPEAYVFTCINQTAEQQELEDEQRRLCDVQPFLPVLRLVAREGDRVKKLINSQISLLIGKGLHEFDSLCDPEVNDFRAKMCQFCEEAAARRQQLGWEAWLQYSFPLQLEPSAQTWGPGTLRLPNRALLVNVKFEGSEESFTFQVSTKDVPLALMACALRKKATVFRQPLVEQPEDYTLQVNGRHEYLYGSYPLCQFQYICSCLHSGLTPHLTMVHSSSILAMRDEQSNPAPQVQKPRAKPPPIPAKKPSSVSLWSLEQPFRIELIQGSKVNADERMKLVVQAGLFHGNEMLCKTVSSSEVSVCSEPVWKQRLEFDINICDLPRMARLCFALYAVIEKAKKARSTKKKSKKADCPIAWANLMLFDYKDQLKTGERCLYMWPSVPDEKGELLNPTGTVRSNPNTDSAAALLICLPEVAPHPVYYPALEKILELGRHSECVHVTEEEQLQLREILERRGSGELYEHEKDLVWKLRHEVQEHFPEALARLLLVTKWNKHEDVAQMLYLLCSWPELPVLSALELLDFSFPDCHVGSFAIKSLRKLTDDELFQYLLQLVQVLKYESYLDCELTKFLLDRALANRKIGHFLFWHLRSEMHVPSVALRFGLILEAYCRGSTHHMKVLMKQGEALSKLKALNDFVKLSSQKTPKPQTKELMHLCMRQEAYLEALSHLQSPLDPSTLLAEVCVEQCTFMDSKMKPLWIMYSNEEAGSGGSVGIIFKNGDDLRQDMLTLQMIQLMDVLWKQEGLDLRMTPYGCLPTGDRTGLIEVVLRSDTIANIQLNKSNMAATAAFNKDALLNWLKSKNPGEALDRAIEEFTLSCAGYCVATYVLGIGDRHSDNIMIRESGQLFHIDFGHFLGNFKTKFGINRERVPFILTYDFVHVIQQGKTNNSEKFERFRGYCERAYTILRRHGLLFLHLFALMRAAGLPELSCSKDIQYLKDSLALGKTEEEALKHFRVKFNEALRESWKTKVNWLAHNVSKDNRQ
Chain of PI3Kδ (P27986 whole entry partner): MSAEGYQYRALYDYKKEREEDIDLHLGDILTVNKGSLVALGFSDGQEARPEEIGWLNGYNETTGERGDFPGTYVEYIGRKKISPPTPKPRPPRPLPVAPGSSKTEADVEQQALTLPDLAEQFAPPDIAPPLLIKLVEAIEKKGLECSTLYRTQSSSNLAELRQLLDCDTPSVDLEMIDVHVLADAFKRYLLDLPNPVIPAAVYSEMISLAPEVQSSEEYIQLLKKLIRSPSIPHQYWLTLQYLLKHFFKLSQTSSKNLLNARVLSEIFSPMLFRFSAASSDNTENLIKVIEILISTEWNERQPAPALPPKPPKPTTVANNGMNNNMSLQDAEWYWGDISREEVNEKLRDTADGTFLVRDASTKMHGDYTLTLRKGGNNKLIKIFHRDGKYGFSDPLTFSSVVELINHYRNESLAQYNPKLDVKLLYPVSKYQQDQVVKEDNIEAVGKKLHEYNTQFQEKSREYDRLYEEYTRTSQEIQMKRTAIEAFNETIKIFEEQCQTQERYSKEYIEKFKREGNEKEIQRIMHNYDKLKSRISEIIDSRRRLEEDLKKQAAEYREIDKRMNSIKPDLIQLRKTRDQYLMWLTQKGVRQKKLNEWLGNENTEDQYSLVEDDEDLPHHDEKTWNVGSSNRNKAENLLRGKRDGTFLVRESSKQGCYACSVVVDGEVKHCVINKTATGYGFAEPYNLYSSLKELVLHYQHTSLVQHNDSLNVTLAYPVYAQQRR

CC[C@H](Nc1nc(N)nc(C)c1C#N)c1nc2cccc(CN(C)c3ncc(C(=O)NO)cn3)c2c(=O)n1-c1ccccc1 [LII, (S)-2-(((2-(1-((2-amino-5-cyano-6-methylpyrimidin-4-yl)amino)propyl)-4-oxo-3-phenyl-3,4-dihydroquinazolin-5-yl)methyl)(methyl)amino)-N-hydroxypyrimidine-5-carboxamide]
pIC50 [1]: > 7.00 | inhibition at 10 µM [2]: > 50% | inhibition at 10 µM [3]: 25 to 50% | inhibition at 10 µM [4]: > 50% | inhibition at 10 µM [5]: > 50%
